Values after ≈ are worked out from the molar mass of the structure shown. Read-outs that look alike come from different tables or passages of the source.
Columns and labels:
M. suipneumoniae JF 435 = experiment: MIC against mycoplasma in vitro; assay type: cell-based; conditions: Mesomycoplasma hyopneumoniae, JF435, 144 h
M. suipneumoniae Str. 11 = experiment: MIC against mycoplasma in vitro; assay type: cell-based; conditions: Mesomycoplasma hyopneumoniae
[1] = system: M. suipneumoniae PW/C/210; experiment: MIC against mycoplasma in vitro; assay type: cell-based; conditions: Mesomycoplasma hyopneumoniae, 144 h
[2] = system: M. suipneumoniae NCTC 10110; experiment: MIC against mycoplasma in vitro; assay type: cell-based; conditions: Mesomycoplasma hyopneumoniae, NCTC10110, 144 h
M. dispar NCTC 10125 = experiment: MIC against mycoplasma in vitro; assay type: cell-based; conditions: 144 h
M. gallisepticum S6 = experiment: MIC against mycoplasma in vitro; assay type: cell-based; conditions: Mycoplasmoides gallisepticum
M. pneumoniae ATCC 15492 = experiment: MIC against mycoplasma in vitro; assay type: cell-based; conditions: Mycoplasmoides pneumoniae, ATCC15492, 144 h
E. coli NCTC 10418 [3] = experiment: MIC against human bacteria in vitro; assay type: cell-based; conditions: Escherichia coli
E. coli ESS = experiment: MIC against human bacteria in vitro; assay type: cell-based; conditions: Escherichia coli
[4] = system: Pasteurella multocida 1633; experiment: MIC against human bacteria in vitro; assay type: cell-based; conditions: Pasteurella multocida 1633; 5% chocolated horse blood agar, 18 hours; read-out: MIC
[5] = system: Haemophilus influenzae Q1; experiment: MIC against human bacteria in vitro; assay type: cell-based; conditions: Haemophilus influenzae Q1; 5% chocolated horse blood agar, 18 hours; read-out: MIC
Bacillus subtilis 6633 = experiment: MIC against human bacteria in vitro; assay type: cell-based; conditions: Bacillus subtilis 6633; 5% chocolated horse blood agar, 18 hours; read-out: MIC
Staph. aureus Oxford [6] = experiment: MIC against human bacteria in vitro; assay type: cell-based; conditions: Staphylococcus aureus; Staph. aureus Oxford; 5% chocolated horse blood agar, 18 hours; read-out: MIC
[7] = system: Strep. pyogenes R80/421-A; experiment: MIC against human bacteria in vitro; assay type: cell-based; conditions: Streptococcus pyogenes; Strep. pyogenes R80/421-A; 5% chocolated horse blood agar, 18 hours; read-out: MIC
E. coli NCTC 10418 [8] = experiment: MIC against veterinary bacteria in vitro; conditions: Escherichia coli, NCTC10418, 18 h
Experimental: (§1) The activity of the compounds of the Examples against various veterinarily important bacteria, was assayed in vitro using two-fold serial dilutions in Diagnostic Sensitivity Test Agar inoculated with 10^4 organisms.

E. coli E1 = experiment: MIC against veterinary bacteria in vitro; conditions: Escherichia coli, E1, 18 h
Experimental: as §1

S. dublin S7 = experiment: MIC against veterinary bacteria in vitro; conditions: Salmonella enterica, S7, 18 h
Experimental: as §1

S. typhimurium S18 = experiment: MIC against veterinary bacteria in vitro; conditions: Salmonella enterica, TYPHIMURIUM, 18 h
Experimental: as §1

[9] = system: Staph. aureus 152 (pen. sens); experiment: MIC against veterinary bacteria in vitro; conditions: Staphylococcus aureus, 18 h
Experimental: as §1

Staph. aureus Oxford [10] = experiment: MIC against veterinary bacteria in vitro; conditions: Staphylococcus aureus, 18 h
Experimental: as §1

Strep. uberis SPU1 = experiment: MIC against veterinary bacteria in vitro; conditions: Streptococcus uberis, SPU1, 18 h
Experimental: as §1

Strep. agalactiae SPA1 = experiment: MIC against veterinary bacteria in vitro; conditions: Streptococcus agalactiae, SPA1, 18 h
Experimental: as §1

Strep. spp. 64/848-C = experiment: MIC against human bacteria in vitro; assay type: cell-based; conditions: Strep. spp. 64/848-C; 5% chocolated horse blood agar, 18 hours; read-out: MIC
[11] = M. suipneumoniae JF 435, 6 days, 37° C., read-out: MIC
[12] = 144 h, M. suipneumoniae Str. 11, 6 days, 37° C., read-out: MIC
[13] = M. suipneumoniae PW/C/210, 6 days, 37° C., read-out: MIC
[14] = M. suipneumoniae NCTC 10110, 6 days, 37° C., read-out: MIC
[15] = M. dispar NCTC 10125, 6 days, 37° C., read-out: MIC
[16] = 144 h, M. gallisepticum S6, 6 days, 37° C., read-out: MIC
[17] = M. pneumoniae ATCC 15492, 6 days, 37° C., read-out: MIC
[18] = NCTC10418, E. coli NCTC 10418, agar with 5% chocolated horse blood, 18 hours, 37° C., read-out: MIC
[19] = E. coli ESS, 5% chocolated horse blood agar, 18 hours, read-out: MIC

Row | SMILES | MIC (M. suipneumoniae JF 435; [11]) [µg/mL] | MIC (M. suipneumoniae Str. 11; [12]) [µg/mL] | MIC [1, 13] [µg/mL] | MIC [2, 14] [µg/mL] | MIC (M. dispar NCTC 10125; [15]) [µg/mL] | MIC (M. gallisepticum S6; [16]) [µg/mL] | MIC (M. pneumoniae ATCC 15492; [17]) [µg/mL] | MIC (E. coli NCTC 10418 [3]; [18]) [µg/mL] | MIC (E. coli ESS; [19]) [µg/mL] | MIC [4] [µg/mL] | MIC (Bacillus subtilis 6633) [µg/mL] | MIC (Staph. aureus Oxford [6]) [µg/mL] | MIC (E. coli NCTC 10418 [8]) [µg/mL] | MIC (E. coli E1) [µg/mL] | MIC (S. dublin S7) [µg/mL] | MIC (S. typhimurium S18) [µg/mL] | MIC [9] [µg/mL] | MIC (Staph. aureus Oxford [10]) [µg/mL] | MIC (Strep. uberis SPU1) [µg/mL] | MIC (Strep. agalactiae SPA1) [µg/mL] | also measured
1 | COC(=O)c1ccc(-c2cnc(/C=C(\C)C[C@@H]3OC[C@H](C[C@@H]4O[C@H]4[C@@H](C)[C@H](C)O)[C@@H](O)[C@H]3O)o2)cc1 [Example 16, 5-p-Methoxycarbonylphenyl-2-(1-normon-2-yl) oxazole A] | 0.5 (≈ 0.997 µM) | 0.25 (≈ 0.498 µM) | 0.25 (≈ 0.498 µM) | 0.5 (≈ 0.997 µM) | 0.1 (≈ 0.199 µM) | 2.5 (≈ 4.98 µM) | 1 (≈ 1.99 µM) | > 64 | 32 (≈ 63.8 µM) | 16 (≈ 31.9 µM) | 1 (≈ 1.99 µM) | 4 (≈ 7.97 µM) | > 80 | > 80 | > 80 | > 80 | 1.25 (≈ 2.49 µM) | 1.25 (≈ 2.49 µM) | 0.312 (≈ 0.622 µM) | 1.25 (≈ 2.49 µM) | MIC [5]: 2 µg/mL (≈ 3.99 µM); MIC [7]: 4 µg/mL (≈ 7.97 µM)
2 | C/C(=C\c1ncc(-c2ccc(Br)cc2)o1)C[C@@H]1OC[C@H](C[C@@H]2O[C@H]2[C@@H](C)[C@H](C)O)[C@@H](O)[C@H]1O [Example 18, 5-p-Bromophenyl-2-(1-normon-2-yl) oxazole A] | 0.5 (≈ 0.957 µM) |  |  |  |  |  |  | > 128 | 8 (≈ 15.3 µM) | 16 (≈ 30.6 µM) | 1 (≈ 1.91 µM) | 2 (≈ 3.83 µM) | > 80 | > 80 | > 80 | > 80 | 0.312 (≈ 0.597 µM) | 0.625 (≈ 1.2 µM) | < 0.039 | 0.625 (≈ 1.2 µM) | MIC (M. suipneumoniae Str. 11; STR.11, 144 h): 0.25 µg/mL (≈ 0.479 µM); MIC [1]: 0.25 µg/mL (≈ 0.479 µM); MIC [2]: 1 µg/mL (≈ 1.91 µM); MIC (M. dispar NCTC 10125): 0.25 µg/mL (≈ 0.479 µM); MIC (M. gallisepticum S6; S6, 144 h): 1 µg/mL (≈ 1.91 µM); MIC (M. pneumoniae ATCC 15492): 1 µg/mL (≈ 1.91 µM); MIC [7]: 2 µg/mL (≈ 3.83 µM); MIC (Strep. spp. 64/848-C): 4 µg/mL (≈ 7.66 µM)
3 | C/C(=C\c1ncc(CCCCCCCCO)o1)C[C@@H]1OC[C@H](C[C@@H]2O[C@H]2[C@@H](C)[C@H](C)O)[C@@H](O)[C@H]1O [Example 19, 5-(8-Hydroxyoctyl)-2-(1-normon-2-yl) oxazole A] |  |  |  | 5 (≈ 10.1 µM) | 0.5 (≈ 1.01 µM) | 10 (≈ 20.2 µM) |  | > 128 | 16 (≈ 32.3 µM) | 32 (≈ 64.6 µM) | 4 (≈ 8.07 µM) | 4 (≈ 8.07 µM) | > 80 | > 80 | > 80 | > 80 | 1.25 (≈ 2.52 µM) | 2.5 (≈ 5.04 µM) | 0.625 (≈ 1.26 µM) | 10 (≈ 20.2 µM) | MIC (M. suipneumoniae JF 435): 2.5 µg/mL (≈ 5.04 µM); MIC (M. suipneumoniae Str. 11; STR.11, 144 h): 1 µg/mL (≈ 2.02 µM); MIC [1]: 0.25 µg/mL (≈ 0.504 µM); MIC (M. pneumoniae ATCC 15492): 1 µg/mL (≈ 2.02 µM); MIC [7]: 2 µg/mL (≈ 4.04 µM); MIC (Strep. spp. 64/848-C): 16 µg/mL (≈ 32.3 µM)
4 | C/C(=C\c1nc(C)c(C)o1)C[C@@H]1OC[C@H](C[C@@H]2O[C@H]2[C@@H](C)[C@H](C)O)[C@@H](O)[C@H]1O [Example 39, 4,5-Dimethyl-2-(1-normon-2-yl)oxazole A] | > 10 | > 10 | > 10 | > 10 | > 10 | > 10 | > 10 |  |  | 50 (≈ 126 µM) | > 100 | 100 (≈ 253 µM) | > 80 | > 80 | > 80 | > 80 | > 80 | > 80 | > 80 |  | MIC (E. coli NCTC 10418 [3]; NCTC10418, 18 h): > 100 µg/mL; MIC (E. coli ESS; 18 h): > 100 µg/mL; MIC [5]: 5 µg/mL (≈ 12.6 µM)
5 | C/C(=C\c1nc(C)c(-c2ccccc2)o1)C[C@@H]1OC[C@H](C[C@@H]2O[C@H]2[C@@H](C)[C@H](C)O)[C@@H](O)[C@H]1O [Example 40, 4-Methyl-2-(1-normon-2-yl)-5-phenyloxazole A] | > 10 | > 10 | > 10 | > 10 | > 10 | > 10 | > 10 |  |  | 100 (≈ 219 µM) | 100 (≈ 219 µM) | 100 (≈ 219 µM) | > 80 | > 80 | > 80 | > 80 | 80 (≈ 175 µM) | 80 (≈ 175 µM) | 40 (≈ 87.4 µM) | > 80 | MIC (E. coli NCTC 10418 [3]; NCTC10418, 18 h): > 100 µg/mL; MIC (E. coli ESS; 18 h): 100 µg/mL (≈ 219 µM); MIC [5]: 50 µg/mL (≈ 109 µM)
